From BindingDB's records for doi:10.1111/cbdd.12481 (University of Kwazulu-Nata, 2015) come the findings set out here.

Test [1] deals with 72 kDa type IV collagenase (Homo sapiens, UniProt P08253). Briefly: MMP2 Inhibition Assay. Particulars: pH 8.5; 25 °C. The protocol:
The synthesized compounds were assayed for the inhibitory activities against MMP-2 in 96-well microtiter plates using succinylated gelatin as the substrate. The compound and enzyme were dissolved in sodium borate buffer (pH 8.5, 50 mM) and incubated at 37 °C for 30 min. The substrate was added and incubated at 37 °C for another 60 min. The 100% and blank groups were also carried out, in which the 100% group contained not compound and the blank group contained […]. Then, 0.03% picrylsulfonic acid solution was added and incubated at room temperature for additional 20 min. The resulting solutions were measured under 450 nm.

Test [2] deals with Macrophage metalloelastase (Homo sapiens, UniProt P39900). Briefly: MMP12 Inhibition Assay. Particulars: pH 8; 25 °C. How it is done: The synthesized compounds were assayed for the inhibitory activities against MMP-12 in 96-well microtiter plates using thiopeptolide as the substrate. MMP-12 was diluted in Assay buffer (50 mM Tris pH7.5, 0.05% Brij-35, 10 mM CaCl2, 1 mM DTNB) to a concentration of 0.007 U/µL. The MMP-12 solution (44 µL) was premixed with 1 µL of inhibitors dissolved in DMSO in a 96-well plate, and the mixture was incubated for 20 min at room temperature. Then, 5 µL of 1 mM MMP chromogenic substrate (thiopeptolide) was added to the mixture, and the reaction mixture was incubated for 30-80 min at 37 °C. Reaction was terminated by adding 7 µL of 0.2 M EDTA (pH 8.0). The intensity of the color developed by the digested substrate was measuredat 405 nm.
Sequence of Macrophage metalloelastase (P39900 whole entry): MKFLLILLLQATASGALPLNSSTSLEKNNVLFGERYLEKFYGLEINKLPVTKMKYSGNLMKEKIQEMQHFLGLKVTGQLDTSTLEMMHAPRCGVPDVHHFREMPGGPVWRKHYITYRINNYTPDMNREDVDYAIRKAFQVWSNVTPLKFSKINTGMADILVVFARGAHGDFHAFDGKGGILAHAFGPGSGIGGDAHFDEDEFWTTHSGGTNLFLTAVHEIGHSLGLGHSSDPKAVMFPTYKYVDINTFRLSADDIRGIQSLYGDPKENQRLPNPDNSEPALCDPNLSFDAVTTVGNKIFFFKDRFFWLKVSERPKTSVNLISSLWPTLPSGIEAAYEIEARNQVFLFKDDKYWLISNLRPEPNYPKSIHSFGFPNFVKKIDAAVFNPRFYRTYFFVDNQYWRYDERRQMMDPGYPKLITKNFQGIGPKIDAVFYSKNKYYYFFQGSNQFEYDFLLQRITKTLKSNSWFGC

Sequence of 72 kDa type IV collagenase (P08253 whole entry): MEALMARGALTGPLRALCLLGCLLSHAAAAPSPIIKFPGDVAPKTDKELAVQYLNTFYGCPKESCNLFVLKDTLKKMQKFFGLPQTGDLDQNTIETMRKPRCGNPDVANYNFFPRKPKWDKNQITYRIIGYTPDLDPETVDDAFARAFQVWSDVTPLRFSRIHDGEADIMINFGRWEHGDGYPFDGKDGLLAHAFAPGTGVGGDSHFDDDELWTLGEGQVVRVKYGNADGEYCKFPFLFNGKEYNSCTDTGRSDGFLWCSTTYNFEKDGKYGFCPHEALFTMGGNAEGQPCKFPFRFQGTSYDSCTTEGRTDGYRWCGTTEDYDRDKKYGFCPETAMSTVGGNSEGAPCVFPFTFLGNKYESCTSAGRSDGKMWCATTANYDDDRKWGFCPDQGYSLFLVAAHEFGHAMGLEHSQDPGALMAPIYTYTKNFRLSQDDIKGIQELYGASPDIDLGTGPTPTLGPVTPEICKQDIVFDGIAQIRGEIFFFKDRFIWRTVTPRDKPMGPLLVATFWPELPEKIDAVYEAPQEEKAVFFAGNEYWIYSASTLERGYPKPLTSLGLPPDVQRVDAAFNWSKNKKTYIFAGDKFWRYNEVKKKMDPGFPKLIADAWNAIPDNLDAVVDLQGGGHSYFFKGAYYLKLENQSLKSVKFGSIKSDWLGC

Usually IC50 stands for the concentration that gives 50% inhibition. Low values mean greater potency, high ones weaker potency. `Cn1c(C(=O)NNC(=S)Nc2ccccc2F)cc(Br)c1Br` [2-(1-Methyl-4,5-dibromo-1H-pyrrole-2-carbonyl)-N-(2-fluorophenyl)hydrazine carbothioamide (5n)]: the figures for the IC50 in test [1] and in test [2] were 8 µM and 43.1 µM, respectively.
The corresponding values for `COc1cc(NC(=S)NNC(=O)c2cc(Br)c(Br)n2C)cc(OC)c1OC` [2-(1-Methyl-4,5-dibromo-1H-pyrrole-2-carbonyl)-N-(3,4,5-trimethoxyphenyl) hydrazine carbothioamide (5t)] are 19.2 µM and 23.8 µM.
The corresponding values for `Cn1c(C(=O)NNC(=O)Nc2ccco2)cc(Br)c1Br` [2-(1-Methyl-4,5-dibromo-1H-pyrrole-2-carbonyl-N-(furan-2-yl))hydrazine carboxamide (4s)] are 60.3 µM and 84.2 µM.
For `O=C(NNC(=S)Nc1ccc(Cl)cc1)c1cc(Br)c(Br)[nH]1` [2-(4,5-Dibromo-1H-pyrrole-2-carbonyl)-N-(4-chlorophenyl)hydrazine carbothioamide (5e)], the figures for the IC50 in test [1] and in test [2] were 1.8 µM and 29 µM, respectively.
The corresponding values for `O=C(NNC(=S)Nc1ccc([N+](=O)[O-])cc1)c1cc(Br)c(Br)[nH]1` [2-(4,5-Dibromo-1H-pyrrole-2-carbonyl)-N-(4-nitrophenyl)hydrazine carbothioamide (5c)] are 13.7 µM and 42.1 µM.
